The record followed here is patent publication US9000018B2, “Thiazolidin-4-one-derivatives” (Actelion Pharmaceuticals Ltd., priority 2003, dated 2015).

Marks after values point to notes of the source that are not given here.

The first assay relates to circulating lymphocytes in whole blood. Kind of assay: number of circulating lymphocytes in whole blood of rats. The assay is classed as in vivo, normotensive male Wistar rats. Conditions: 6 h after oral administration of 10 mg/kg to normotensive male Wistar rats, compared to group treated with vehicle only. The protocol:
Normotensive male Wistar rats are housed in climate-controlled conditions with a 12-hour light/dark cycle, and have free access to normal rat chow and drinking water. Blood (0.5 mL) is collected by retro-orbital sampling before drug administration, and 3 and 6 h thereafter. Blood cell count is measured in whole blood using a Beckman-Coulter Synchron CX5 Pro cytometer. Statistical analysis of lymphocyte counts are performed by analysis of variance (ANOVA) using Statistica (StatSoft) and the Student-Newman-Keuls procedure for multiple comparisons. Thus, compounds of the invention decrease the number of circulating lymphocytes in whole blood when compared to pre-drug values.
For `CCC/N=C1\S/C(=C\c2ccc(OCC(O)CO)c(Cl)c2)C(=O)N1c1ccccc1C` (racemic) [Example 84, rac-5-[3-chloro-4-(2,3-dihydroxy-propoxy)-benz[Z]ylidene]-2-([Z]-propylimino)-3-o-tolyl-thiazolidin-4-one], the Lymphocyte counts is reported as −68%. As for `CCC/N=C1\S/C(=C\c2ccc(OCC(O)CO)c(Cl)c2)C(=O)N1c1ccccc1` (racemic) [Example 77, rac-5-[3-chloro-4-(2,3-dihydroxy-propoxy)-benz[Z]ylidene]-3-phenyl-2-([Z]-propylimino)-thiazolidin-4-one], the Lymphocyte counts was −55%. As to `Cc1cccc(N2C(=O)/C(=C/c3ccc(OCC(O)CO)c(Cl)c3)S/C2=N\C(C)C)c1C` (racemic) [Example 46, rac-5-[3-chloro-4-(2,3-dihydroxy-propoxy)-benz[Z]ylidene]-3-(2,3-dimethyl-phenyl)-2-([Z]-isopropylimino)-thiazolidin-4-one], the Lymphocyte counts was −37%.

With `CC/N=C1\S/C(=C\c2ccc(OCCO)c(Cl)c2)C(=O)N1c1cccc(C)c1C` [Example 110, 5-[3-chloro-4-(2-hydroxy-ethoxy)-benz[Z]ylidene]-3-(2,3-dimethyl-phenyl)-2-([Z]-ethylimino)-thiazolidin-4-one], the Lymphocyte counts is listed as −30%. Consider `Cc1cccc(N2C(=O)/C(=C/c3ccc(OCCO)c(Cl)c3)S/C2=N\C(C)C)c1C` [Example 42, 5-[3-chloro-4-(2-hydroxy-ethoxy)-benz[Z]ylidene]-3-(2,3-dimethyl-phenyl)-2-([Z]-isopropylimino)-thiazolidin-4-one], for which the Lymphocyte counts is on record as −23%.

`CCC/N=C1\S/C(=C\c2ccc(OCC(O)CO)c(Cl)c2)C(=O)N1c1cccc(C)c1C` (racemic) [Example 95, rac-5-[3-chloro-4-(2,3-dihydroxy-propoxy)-benz[Z]ylidene]-3-(2,3-dimethyl-phenyl)-2-([Z]-propylimino)-thiazolidin-4-one]: the Lymphocyte counts is −53%. On to `CCC/N=C1\S/C(=C\c2ccc(OC[C@H](O)CO)c(Cl)c2)C(=O)N1c1ccccc1C` [Example 85, 5-[3-chloro-4-((2R)-2,3-dihydroxy-propoxy)-benz-(Z)-ylidene]-2-[(Z)-propylimino]-3-o-tolyl-thiazolidin-4-one], for which the Lymphocyte counts is −63%.

Turning to `CC(C)/N=C1\S/C(=C\c2ccc(OCCO)c(Cl)c2)C(=O)N1C(C)C` [Example 130, 5-[3-chloro-4-(2-hydroxy-ethoxy)-benz[Z]ylidene]-3-isopropyl-2-([Z]-isopropylimino)-thiazolidin-4-one], the Lymphocyte counts is reported as −26%. `CCC/N=C1\S/C(=C\c2ccc(OCCO)c(Cl)c2)C(=O)N1c1ccccc1` [Example 75, 5-[3-chloro-4-(2-hydroxy-ethoxy)-benz[Z]ylidene]-3-phenyl-2-([Z]-propylimino)-thiazolidin-4-one]: the Lymphocyte counts was −47%.

Take `CC(C)/N=C1\S/C(=C\c2ccc(OCCO)cc2)C(=O)N1c1ccccc1` [Example 4, 5-[4-(2-Hydroxy-ethoxy)-benz-(Z)-ylidene]-2-[(Z)-isopropylimino]-3-phenyl-thiazolidin-4-one]: the Lymphocyte counts is −32%. `CCC/N=C1\S/C(=C\c2ccc(OCCO)c(C)c2)C(=O)N1c1ccccc1` [Example 76, 5-[4-(2-hydroxy-ethoxy)-3-methyl-benz[Z]ylidene]-3-phenyl-2-([Z]-propylimino)-thiazolidin-4-one]: the Lymphocyte counts was −58%. Still for that read-out and setting: under `Cc1ccccc1N1C(=O)/C(=C/c2ccc(OCC(O)CO)c(Cl)c2)S/C1=N\C(C)C` (racemic) [Example 24, rac-5-[3-chloro-4-(2,3-dihydroxy-propoxy)-benz[Z]ylidene]-2-([Z]-isopropylimino)-3-o-tolyl-thiazolidin-4-one] stands −54%; under `CC(C)/N=C1\S/C(=C\c2ccc(OCCO)c(Cl)c2)C(=O)N1c1ccccc1` [Example 7, 5-[3-Chloro-4-(2-hydroxy-ethoxy)-benz-(Z)-ylidene]-2-[(Z)-isopropylimino]-3-phenyl-thiazolidin-4-one], −67%.

On to `CN(C)N=C1SC(=Cc2ccc(OCCO)cc2)C(=O)N1c1ccccc1` [Example 100, 2-(dimethyl-hydrazono)-5-[4-(2-hydroxy-ethoxy)-benz[Z]ylidene]-3-phenyl-thiazolidin-4-one], for which the Lymphocyte counts is −53%.

In the case of `CCC/N=C1\S/C(=C\c2ccc(OCCO)c(Cl)c2)C(=O)N1c1cccc(C)c1C` [Example 91, 5-[3-chloro-4-(2-hydroxy-ethoxy)-benz[Z]ylidene]-3-(2,3-dimethyl-phenyl)-2-([Z]-propylimino)-thiazolidin-4-one], the Lymphocyte counts is recorded as −35%. In the case of `CC/N=C1\S/C(=C\c2ccc(OCCO)c(Cl)c2)C(=O)N1c1ccccc1` [Example 103, 5-[3-chloro-4-(2-hydroxy-ethoxy)-benz[Z]ylidene]-2-([Z]-Ethylimino)-3-phenyl-thiazolidin-4-one], the Lymphocyte counts is listed as −47%.

The same assay, now with this note: at 3 mg/kg p.o.; 6 h after oral administration to normotensive male Wistar rats, compared to group treated with vehicle only.
For `CCC/N=C1\S/C(=C\c2ccc(OC[C@@H](O)CO)c(Cl)c2)C(=O)N1c1ccccc1C` [Example 86, (S)-5-[3-chloro-4-(2,3-dihydroxy-propoxy)-benz[Z]ylidene]-2-([Z]-propylimino)-3-o-tolyl-thiazolidin-4-one], the Lymphocyte counts was −30* %.
